In PubChem BioAssay AID180 (DTP/NCI, 2004):
Values joined by “and” are separate entries in the source; they are usually repeats but may differ in a detail not shown here. Identical values can stand only once.

Tested on: BDF1 mice, Adenocarcinoma 755 s.c., tumor weight T/C
Assay: NCI In Vivo Anticancer Drug Screen. Data for tumor model Adenocarcinoma 755 (subcutaneous) in B6D2F1 (BDF1) mice
Settings: endpoint: mean tumor weight, higher = larger tumour
How it was run: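 In vivo antitumor screen on a transplantable tumor line. Result equals the measure in compound-treated animals divided by the same measure in vehicle controls.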

[1] = dose: 75.0 mg/kg/injection, schedule: Q01DX011 (ip), vehicle: carboxymethylcellulose (CMC)
[2] = dose: 25.0 mg/kg/injection, schedule: Q01DX011 (ip), vehicle: carboxymethylcellulose (CMC)
[3] = dose: 225.0 mg/kg/injection, schedule: Q01DX011 (ip), vehicle: carboxymethylcellulose (CMC)

## CCC(C)Cn1cnc2c(SCc3ccccc3)nc(N)nc21 (centres undefined)
dose: 37.5 mg/kg/injection, schedule: Q01DX011 (ip), vehicle: carboxymethylcellulose (CMC)
  T/C: 68 % of control
[1]
  T/C: 32 % of control
dose: 150.0 mg/kg/injection, schedule: Q01DX011 (ip), vehicle: carboxymethylcellulose (CMC)
  T/C: 21 % of control
dose: 300.0 mg/kg/injection, schedule: Q01DX011 (ip), vehicle: carboxymethylcellulose (CMC)
  T/C: 13 % of control

## CCC1CN1P(=S)(N1CC1CC)N1CC1CC (centres undefined)
dose: 28.0 mg/kg/injection, schedule: Q01DX011 (ip), vehicle: saline
  T/C: 104 % of control
dose: 56.0 mg/kg/injection, schedule: Q01DX011 (ip), vehicle: saline
  T/C: 28 % of control
dose: 113.0 mg/kg/injection, schedule: Q01DX011 (ip), vehicle: saline
  T/C: 8 % of control

## CN(CCO)/N=N/c1nc[nH]c1C(N)=O
dose: 42.0 mg/kg/injection, schedule: Q01DX011 (ip), vehicle: carboxymethylcellulose (CMC)
  T/C: 60 % of control
dose: 93.0 mg/kg/injection, schedule: Q01DX011 (ip), vehicle: carboxymethylcellulose (CMC)
  T/C: 57 % of control
dose: 187.0 mg/kg/injection, schedule: Q01DX011 (ip), vehicle: carboxymethylcellulose (CMC)
  T/C: 26 % of control

## CC(C)Cn1cnc2c(SCc3ccccc3F)nc(N)nc21
dose: 18.75 mg/kg/injection, schedule: Q01DX011 (ip), vehicle: methylcellulose (MC)
  T/C: 80 % of control
dose: 37.5 mg/kg/injection, schedule: Q01DX011 (ip), vehicle: methylcellulose (MC)
  T/C: 65 % of control
dose: 150.0 mg/kg/injection, schedule: Q01DX011 (ip), vehicle: methylcellulose (MC)
  T/C: 28 % of control

## S=C(N=Nc1ccccc1)NNc1ccccc1
dose: 50.0 mg/kg/injection, schedule: Q01DX011 (ip), vehicle: carboxymethylcellulose (CMC)
  T/C: 113 % of control
[1]
  T/C: 152 % of control

## CC(C)C(=O)OCC1OC(n2cnc3c(=S)nc(N)[nH]c32)C(OC(=O)C(C)C)C1OC(=O)C(C)C (centres undefined)
dose: 1.5 mg/kg/injection, schedule: Q01DX011 (ip), vehicle: carboxymethylcellulose (CMC)
  T/C: 76 % of control and 79 % of control
dose: 3.0 mg/kg/injection, schedule: Q01DX011 (ip), vehicle: carboxymethylcellulose (CMC)
  T/C: 43 % of control
dose: 6.0 mg/kg/injection, schedule: Q01DX011 (ip), vehicle: carboxymethylcellulose (CMC)
  T/C: 25 % of control
dose: 12.0 mg/kg/injection, schedule: Q01DX011 (ip), vehicle: carboxymethylcellulose (CMC)
  T/C: 18 % of control

## C[C@]12CC[C@H](OC3OC(CO)C(O)C(O)C3O)C[C@H]1CC[C@@H]1[C@@H]2CC[C@]2(C)[C@@H](C3=CCOC3=O)CC[C@]12O (some centres undefined)
dose: 0.13 mg/kg/injection, schedule: Q01DX011 (ip), vehicle: saline
  T/C: 34 % of control
dose: 0.25 mg/kg/injection, schedule: Q01DX011 (ip), vehicle: saline
  T/C: 35 % of control
dose: 0.5 mg/kg/injection, schedule: Q01DX011 (ip), vehicle: saline
  T/C: 22 % of control and 44 % of control
dose: 1.0 mg/kg/injection, schedule: Q01DX011 (ip), vehicle: saline
  T/C: 3 % of control

## NS(=O)(=O)c1nc(Cl)c2[nH]cnc2n1
[2]
  T/C: 116 % of control
[1]
  T/C: 73 % of control
[3]
  T/C: 69 % of control

## CN(C)S(=O)(=O)c1nc(Cl)c2[nH]cnc2n1
[2]
  T/C: 98 % of control
[1]
  T/C: 89 % of control
[3]
  T/C: 58 % of control

## Cc1ccc(N2CCN(CCCN3CCN(c4ccc(Cl)cc4)CC3)CC2)cc1
dose: 0.05 mg/kg/injection, schedule: Q01DX011 (ip), vehicle: carboxymethylcellulose (CMC)
  T/C: 100 % of control
dose: 0.09 mg/kg/injection, schedule: Q01DX011 (ip), vehicle: carboxymethylcellulose (CMC)
  T/C: 66 % of control
dose: 0.18 mg/kg/injection, schedule: Q01DX011 (ip), vehicle: carboxymethylcellulose (CMC)
  T/C: 116 % of control
dose: 0.37 mg/kg/injection, schedule: Q01DX011 (ip), vehicle: carboxymethylcellulose (CMC)
  T/C: 104 % of control
dose: 0.75 mg/kg/injection, schedule: Q01DX011 (ip), vehicle: methylcellulose (MC)
  T/C: 38 % of control
dose: 1.5 mg/kg/injection, schedule: Q01DX011 (ip), vehicle: methylcellulose (MC)
  T/C: 37 % of control
dose: 12.5 mg/kg/injection, schedule: Q01DX011 (ip), vehicle: methylcellulose (MC)
  T/C: 76 % of control
dose: 25.0 mg/kg/injection, schedule: Q01DX011 (ip), vehicle: methylcellulose (MC)
  T/C: 48 % of control
dose: 50.0 mg/kg/injection, schedule: Q01DX011 (ip), vehicle: methylcellulose (MC)
  T/C: 42 % of control and 46 % of control

## C[C@]12CCCC[C@@H]1CC[C@@H]1[C@@H]2[C@@](C)(O)C[C@@]2(C)[C@H]1CC[C@]2(C)O
dose: 300.0 mg/kg/injection, schedule: Q01DX011 (sc), vehicle: steriod suspending solution
  T/C: 79 % of control
